This series is described as follows: Solubility test of compound in safe solvent. The series is classed as physicochemical. The settings on record: 23° C.; for dissolution amount in CHN: cyclohexanone (CHN); for dissolution amount in PGME: propylene glycol monomethyl ether (PGME). As for the experimental part: The dissolution amounts of compounds obtained in the above synthesis examples 1 to 6 and syntheses 1 and 2 in propylene glycol monomethyl ether (PGME) and cyclohexanone (CHN) were evaluated as follows.
• A: 5.0% by mass≦dissolution amount • B: 3.0% by mass≦dissolution amount<5.0% by mass • C: dissolution amount<3.0% by mass *dissolution amount (% by mass)=mass (g) of compound dissolved in 100 g of solvent of 23° C./(100 g of mass of solvent+mass (g) of compound dissolved in 100 g of solvent of 23° C.)×100

For `CC(C)c1ccc(C2c3cc(c(O)cc3O)C(c3ccc(C(C)C)cc3)c3cc(c(O)cc3O)C(c3ccc(C(C)C)cc3)c3cc(c(O)cc3O)C(c3ccc(C(C)C)cc3)c3cc2c(O)cc3O)cc1` (stereo not shown) [CR-1A], the “dissolution amount in CHN” value is “C (dissolution amount<3.0% by mass)” and the “dissolution amount in PGME” value was “B (3.0% by mass≦dissolution amount<5.0% by mass)”.

For `Oc1cc(O)c2cc1C(c1ccc(C3CCCCC3)cc1)c1cc(c(O)cc1O)C(c1ccc(C3CCCCC3)cc1)c1cc(c(O)cc1O)C(c1ccc(C3CCCCC3)cc1)c1cc(c(O)cc1O)C2c1ccc(C2CCCCC2)cc1` (stereo not shown) [CR-2A], the “dissolution amount in CHN” value is listed as “B (3.0% by mass≦dissolution amount<5.0% by mass)” and the “dissolution amount in PGME” value was “B (3.0% by mass≦dissolution amount<5.0% by mass)”.

(Values after US9182666B2, “Cyclic compound, method for producing the same, radiation-sensitive composition, and resist pattern formation method” (MITSUBISHI GAS CHEMICAL COMPANY, INC., priority 2011, dated 2015).)
